In test [1] the test system is isolated stratum corneum (SC) from human skin explants. In words: Mechanical stress within isolated SC subjected to dehydration stress in an environmental chamber (substrate curvature). An excerpt: These elements led the Applicant to use an in vitro model of isolated SC to study changes in mechanical properties as a function of hydration level. Measuring skin tension makes it possible to define a relationship between skin dryness and skin stress, and the appearance of cracks. Moreover, the use of this model makes it possible to know with a high degree of accuracy the effect of active agents on these mechanical measurements and, consequently, on the hydration state of the stratum corneum. (K. Levi, R. J. Weber, J. Q. Do and R. H. Dauskardt. International Journal of Cosmetic Science, 2010, 32, 276-293 Drying stress and damage processes in human stratum corneum) (K. Levi and R. H. Dauskardt. International Journal of Cosmetic Science, 2010, 32, 294-298 Application of substrate curvature method to differentiate drying stresses in topical coatings and human stratum corneum).
The mechanical approach used here consists in measuring the mechanical stress produced within SC that has been isolated and subjected to dehydration stress in an environmental chamber.
The SC specimen—from human skin explants—was isolated by enzymatic digestion. It was placed on a borosilicate slide to which it naturally adheres.
The SC, initially 100% hydrated, is then placed in an atmosphere with 7% air humidity. The SC then undergoes a progressive dehydration, during which measurements of SC tension are taken every 15 minutes for 8 hours using a stress measurement device. […] Given the differences that exist between its mechanical properties and those of the support (the slide), the latter bends. By means of this radius of curvature, measured with a laser interferometer, it is then possible to calculate the state of tension/stress from the Stoney equation. The initial data correspond to a measurement of the variation of the curvature of the unit (borosilicate slide+SC). It is possible to calculate the biomechanical stress parameters of the SC, such as tension, from knowledge of the biomechanical properties of the borosilicate slide, its thickness, and the thickness of the SC (see methodology FIG. 1; and bibliographical reference K. Levi, et al., IJCS 2010).
This first kinetics study makes it possible to know the behavior of untreated SC. Next, the unit (SC+slide) is returned to 100% air humidity for 2 hours and then incubated in the various treatments for 5 minutes. A […] film is deposited: using a spiral filmograph for liquid emollients and a slide for creams. At the end of this period the unit is again placed in 7% air humidity for the study of dehydration kinetics until stabilization of the measurements (generally 8 to 12 hours). […]

For test [2], the system named is isolated stratum corneum. To be noted: Levi et al., Int J Cosmet Sci. 2010; 32: 276-93; cited from earlier work.

Turning to isocetyl stearoyl stearate [compound 1], the “maximum stress within the SC” value in test [1] (SC pretreated 5 minutes, then 7% air humidity, compared with untreated control, FIG. 3) is given as “momentarily greater than the control”. For the same substance, the “time to reach minimum stress plateau” value in test [1] (after the stress starts to fall, 7% air humidity, FIG. 3) is 2 h. Moreover, the “time after which the stress falls” value in test [1] (hours of dehydration at 7% air humidity, FIG. 3) is 3 h. In addition, in test [1] (topical application, during the first 4 hours, FIG. 1), the “shrinking of the skin induced by drying stress” value is reported as “increases”. Also, the “efficacy with respect to the shrinking of the stratum corneum specimen desiccated by a lack of moisture” value in test [2] is given as “good efficacy”.

These data come from patent publication US9616010B2, “Cosmetic composition comprising a ternary lipid association for controlling dryness of the skin” (PIERRE FABRE DERMO-COSMETIQUE, priority 2013, dated 2017).
